Columns and labels:
[1] = system: acetohydroxy acid synthase; assay: Acetohydroxy acid synthase activity of crude enzyme solution from wild-type strain ATCC13869, with amino acid added (feedback inhibition); format: biochemical, Brevibacterium lactofermentum; settings: Amino acid added (5mM), 65mM phosphate buffer, 100mM sodium pyruvate
Excerpt: (§1) In order to confirm that the DNA donor strain or transformant imparted with resistance to antagonist contains a mutant-type gene that codes for acetohydroxy acid synthase with reduced feedback inhibition by L-valine, L-leucine or L-isoleucine, it is necessary to prepare an enzyme solution from that antagonist-resistant strain or transformant, to allow this solution to act upon pyruvic acid ( as substrate ) in the presence of L-valine, L-leucine or L-isoleucine, and to measure the amount of 2-acetolactic acid formed.
(§2) A strain being tested was cultivated in production medium (A) for about 18 hours, the grown cells were ultrasonicated, and the resulting solution was centrifuged at 15,000 r.p.m. for 20 minutes.
(§3) The supernatant thus obtained was used as a crude enzyme solution, which was added to a solution containing 65mM phosphate buffer and 100mM sodium pyruvate to effect enzymic reaction. Acetolactic acid thus formed was converted to acetoin, and the color developed by addition of 2-naphthol was measured at 530 nm.

[2] = system: acetohydroxy acid synthase; assay: Acetohydroxy acid synthase activity of crude enzyme solution from transformant AJ12403/pAJ220V3, with amino acid added (feedback inhibition); format: biochemical, Brevibacterium lactofermentum; settings: Amino acid added (5mM); crude enzyme of strain AJ12403/pAJ220V3; 65mM phosphate buffer, 100mM sodium pyruvate
Excerpt: as §1, §2, §3

Row | SMILES | relative activity values (%) when the activity in the absence of amino acid is taken as 100 [1] [%] | relative activity values (%) when the activity in the absence of amino acid is taken as 100 [2] [%]
1 | CC(C)[C@H](N)C(=O)O [L-Val, L-valine] | 60 | 108
2 | CC[C@H](C)[C@H](N)C(=O)O [L-Ile, L-isoleucine] | 60 | 101
3 | CC(C)C[C@H](N)C(=O)O [L-Leu, L-leucine] | 67 | 119

From patent publication EP0356739B1, “Recombinant DNA, microorganism carrying said recombinant DNA, and process for producing L-amino acids by the use of said microorganism” (AJINOMOTO CO., INC., priority 1988, dated 1990)
